Measurements published in US9034873B2, “Pyridazine and pyrrole compounds, processes for obtaining them and uses” (Centre National de la Recherche Scientifique (C.N.R.S.), priority 2006, dated 2015).
Converted amounts (≈) assume the structure as drawn. Where two headings read alike, the source gives them in different places.

Tests used:
[1] = tested on: Leishmania mexicana amastigotes; assay: Activity against Leishmania mexicana, amastigotes; assay type: cell-based; conditions: amastigote stage; for IC50: Leishmania mexicana, read-out: Activity against Leishmania mexicana (IC50 μg/ml) amastigotes
[2] = tested on: Leishmania mexicana promastigotes; assay: Activity against Leishmania mexicana, promastigotes; assay type: cell-based; conditions: for IC50: Leishmania mexicana, read-out: Activity against Leishmania mexicana (IC50 μg/ml) promastigotes, promastigote stage
[3] = tested on: Fibroblast (skin); assay: IC50 of the referent molecules on Fibroblast (skin) cells; assay type: cell-based
[4] = tested on: Caco (colon); assay: IC50 of the referent molecules on Caco (colon) cells; assay type: cell-based
[5] = tested on: Sub7 (liver); assay: IC50 of the referent molecules on Sub7 (liver) cells; assay type: cell-based
[6] = tested on: Aspergillus fumigatus; assay: Parasitology: activity against Aspergillus fumigatus; assay type: cell-based; conditions: for IC80: IC80 stated in the cell
[7] = tested on: Leishmania mexicana; assay: Parasitology: activity against Leishmania mexicana; assay type: cell-based
[8] = tested on: Candida albicans; assay: Parasitology: activity against Candida albicans; assay type: cell-based
[9] = tested on: KB, Caco, Huh7 and fibroblast cells; assay: Cancer cell model: in vitro test on KB, Caco, Huh7 and fibroblast cells; assay type: cell-based
[10] = Cytotoxicity on KB cells; assay type: cell-based; conditions: human
[11] = target: tonB protein (Escherichia coli, UniProt P02929); assay: Effect on tonB protein (iron transport used for bacterial growth); conditions: tonB protein involved in the iron transport process used for bacterial growth
[12] = Fibroblast, 24 h, read-out: IC50 μM Fibroblast (skin) 24 h
[13] = Fibroblast, 48 h, read-out: IC50 μM Fibroblast (skin) 48 H
[14] = 24 h, read-out: IC50 μM Caco (colon) 24 h
[15] = 48 h, read-out: IC50 μM Caco (colon) 48 h
[16] = 24 h, read-out: IC50 μM Sub7 (liver) 24 h
[17] = 48 h, read-out: IC50 μM Sub7 (liver) 48 h
[18] = read-out: Parasitology IC50 or 80 Leishmania mexicana μM
[19] = read-out: Parasitology IC50 or 80 Leishmania mexicana μg/mL
[20] = read-out: Parasitology IC50 or 80 Candida albicans μM
[21] = read-out: Parasitology IC50 or 80 Candida albicans μg/mL
[22] = KB cells, read-out: KB cells Cytotoxicity IC50 μM

tonB protein, sequence (P02929 whole entry): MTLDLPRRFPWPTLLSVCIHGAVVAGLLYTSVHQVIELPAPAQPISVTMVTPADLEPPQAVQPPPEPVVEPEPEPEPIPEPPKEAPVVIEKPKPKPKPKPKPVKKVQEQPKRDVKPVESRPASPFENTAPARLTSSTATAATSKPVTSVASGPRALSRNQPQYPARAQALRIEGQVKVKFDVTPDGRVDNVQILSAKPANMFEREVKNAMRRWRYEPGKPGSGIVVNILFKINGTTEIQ

Q: What does the source list for `CC(=O)N1CCN(c2ccc(OCC3COC(Cn4ccnc4)(c4ccc(Cl)cc4Cl)O3)cc2)CC1` (stereo not shown) [Ketoconazole]?
A: IC50 [1]: 1.3 ± 0.2 µg/mL (≈ 2.45 µM); IC50 [2]: ~0.3 µg/mL (≈ 0.565 µM)

Q: With `COc1cccc2c1C(=O)c1c(O)c3c(c(O)c1C2=O)C[C@@](O)(C(=O)CO)C[C@@H]3O[C@H]1C[C@H](N)[C@H](O)[C@H](C)O1` [Doxorubicine] as the compound, how does the IC50 [3, 12] read?
A: 2 µM

Q: And the IC50 [3, 13]?
A: 1 µM

Q: What about the IC50 [4, 14] of the same compound?
A: 1 µM

Q: And the IC50 [4, 15]?
A: 0.06 µM

Q: What about the IC50 [5, 16] of the same compound?
A: 0.4 µM

Q: And the IC50 [5, 17]?
A: 0.04 µM

Q: For `c1ccc(-c2ccc(Oc3ccc(-c4ccccn4)nn3)nn2)nc1` [Compound 9, di(6-pyridin-2-yl)pyridazine ether], which IC50 ([6]; cell does not say IC50 or IC80, read-out: Parasitology IC50 or 80 Aspergillus fumigatus μM) is on record?
A: > 100 µM

Q: What about the IC50 ([6]; cell does not say IC50 or IC80, read-out: Parasitology IC50 or 80 Aspergillus fumigatus μg/mL) of the same compound?
A: > 22.8 µg/mL

Q: What about the IC50 [7, 18] of the same compound?
A: > 100 µM

Q: What about the IC50 [7, 19] of the same compound?
A: > 22.8 µg/mL

Q: And the IC50 [8, 20]?
A: > 100 µM

Q: What about the IC50 [8, 21] of the same compound?
A: > 22.8 µg/mL

Q: For `C[C@@H]1[C@H](O)[C@@H](C)/C=C/C=C/C=C/C=C/C=C/C=C/C=C/[C@H](O[C@@H]2O[C@H](C)[C@@H](O)[C@H](N)[C@@H]2O)C[C@@H]2O[C@](O)(C[C@@H](O)C[C@@H](O)[C@H](O)CC[C@@H](O)C[C@@H](O)CC(=O)O[C@H]1C)C[C@H](O)[C@H]2C(=O)O` [Amphotericin B], which “Activity against Leishmania mexicana (IC50 μg/ml) amastigotes” value [1] is on record?
A: 0.47 ± 0.05 µg/mL

Q: With `O=C(O)c1cccc(-c2ccc(-c3cccc(-c4ccc(-c5cccc(C(=O)O)n5)nn4)n3)nn2)n1` [Compound 50, 2,6-bis[3-(2-carboxypyridin-6-yl)pyridazin-6-yl]pyridine] as the compound, how does the “cytotoxic activity in a cancer cell model” value (“cytotoxic activity” below) [9] read?
A: very high cytotoxic activity

Q: And the IC50 [7, 18]?
A: 8 µM

Q: What about the IC50 [7, 19] of the same compound?
A: 3.8 µg/mL

Q: What about the IC50 [8, 20] of the same compound?
A: 63 µM

Q: What about the IC50 [8, 21] of the same compound?
A: 30.1 µg/mL

Q: Which IC50 [10, 22] does the source give for `c1ccc(-c2ccc(-c3cccc(-c4ccc(-c5ccccn5)nn4)n3)nn2)nc1` [Compound 33, 2,6-bis[6-(pyridin-2-yl)pyridazin-3-yl]-pyridine] here?
A: 6.27 µM

Q: What about the IC50 ([10]; KB cells, read-out: KB cells Cytotoxicity IC50 μg/mL) of the same compound?
A: 1.81 µg/mL

Q: And the IC80 ([6]; read-out: Aspergillus fumigatus IC80 μM)?
A: 32 µM

Q: What about the IC80 ([6]; read-out: Aspergillus fumigatus IC80 μg/mL) of the same compound?
A: 9.26 µg/mL

Q: What about the IC50 [7, 18] of the same compound?
A: 0.19 µM

Q: What about the IC50 [7, 19] of the same compound?
A: 0.05 µg/mL

Q: And the IC50 [8, 20]?
A: 6.4 µM

Q: What about the IC50 [8, 21] of the same compound?
A: 1.85 µg/mL

Q: Which IC50 [10, 22] does the source give for `O=c1ccc(-c2cccc(-c3ccc(=O)[nH]n3)n2)n[nH]1` [Compound 36, 2,6-bis(3-oxo-2H-pyridazin-6-yl)pyridine] here?
A: 2.6 µM

Q: What about the IC50 [7, 18] of the same compound?
A: 41 µM

Q: What about the IC50 [7, 19] of the same compound?
A: 11 µg/mL

Q: And the IC50 [8, 20]?
A: > 100 µM

Q: What about the IC50 [8, 21] of the same compound?
A: > 26.7 µg/mL

Q: With `C=C(OCC)c1ccc(-c2ccc(C(=C)OCC)nn2)nn1` [Compound 24, 6,6′-di(1-ethoxyvinyl)-3,3′-bipyridazine] as the compound, how does the “cytotoxic activity” value [9] read?
A: very high cytotoxic activity

Q: And the IC50 ([10]; KB cancer cells, text of Example 2, read-out: cytotoxic potential on KB cancer cells, IC50)?
A: 0.3 µg/mL

Q: And the “effect on the tonB protein” value [11]?
A: affects the tonB protein

Q: With `c1ccc(-c2ccc(-c3ccc4ccc5ccc(-c6ccc(-c7ccccn7)nn6)nc5c4n3)nn2)nc1` [Compound 66, 2,9-bis[6-(pyridin-2-yl)pyridazin-3-yl][1,10]phenanthroline] as the compound, how does the IC50 [7, 18] read?
A: 16 µM

Q: And the IC50 [7, 19]?
A: 7.84 µg/mL

Q: What about the IC50 [8, 20] of the same compound?
A: > 100 µM

Q: And the IC50 [8, 21]?
A: ≥ 49.1 µg/mL

Q: With `Cc1cccc(-c2ccc(-c3cccc(-c4ccc(-c5cccc(C)n5)nn4)n3)nn2)n1` [Compound 49, 2,6-bis[6-(6-methylpyridin-2-yl)pyridazin-3-yl)pyridine] as the compound, how does the “cytotoxic activity” value [9] read?
A: very high cytotoxic activity

Q: What does the source list for `c1ccc(-c2ccc(Sc3ccc(-c4ccccn4)nn3)nn2)nc1` [Compound 11, di(6-pyridin-2-yl)pyridazine thioether]?
A: cytotoxic activity in a cancer cell model [9]: very high cytotoxic activity; IC50 [7, 18]: 3 µM; IC50 [7, 19]: 8.73 µg/mL; IC50 [8, 20]: 99 µM; IC50 [8, 21]: 24.2 µg/mL

Q: With `CC[C@H](CO)Nc1nc(NCc2ccccc2)c2ncn(C(C)C)c2n1` [Roscovitine] as the compound, how does the IC50 [3, 12] read?
A: > 25 µM

Q: And the IC50 [3, 13]?
A: > 25 µM

Q: With `CC(=O)O[C@H]1C(=O)[C@@]2(C)[C@H]([C@H](OC(=O)c3ccccc3)[C@]3(O)C[C@H](OC(=O)[C@H](O)[C@@H](NC(=O)c4ccccc4)c4ccccc4)C(C)=C1C3(C)C)[C@]1(OC(C)=O)CO[C@@H]1C[C@@H]2O` [Taxol] as the compound, how does the IC50 [3, 12] read?
A: > 25 µM

Q: What about the IC50 [3, 13] of the same compound?
A: > 25 µM

Q: What about the IC50 [4, 14] of the same compound?
A: 0.01 µM

Q: And the IC50 [4, 15]?
A: < 0.008 µM

Q: What about the IC50 [5, 16] of the same compound?
A: 0.01 µM

Q: What about the IC50 [5, 17] of the same compound?
A: < 0.01 µM

Q: Which IC50 [1] does the source give for `CCCCCCCCCCCCCCCCOP(=O)([O-])OCC[N+](C)(C)C` [Miltefosine] here?
A: 1.42 ± 0.14 µg/mL (≈ 3.48 µM)

Q: And the IC50 [2]?
A: > 2 µg/mL

Q: And the “Activity against Leishmania mexicana (IC50 μg/ml) promastigotes” value ([2]; promastigote stage)?
A: >2 µg/mL

Q: For `O=c1[nH]cc(F)c(=O)[nH]1` [Compound 5FU, 5FU], which IC50 ([3]; 48 H, read-out: IC50 μM Fibroblast (skin) 48 H) is on record?
A: > 25 µM

Q: And the IC50 ([3]; 24 h, read-out: IC50 μM Fibroblast (skin) 24 h)?
A: > 25 µM

Q: And the IC50 [4, 14]?
A: 0.5 µM

Q: And the IC50 [4, 15]?
A: 0.5 µM

Q: What about the IC50 [5, 16] of the same compound?
A: > 25 µM

Q: What about the IC50 [5, 17] of the same compound?
A: > 25 µM

Q: Which “cytotoxic activity” value [9] does the source give for `S=c1ccc(-c2ccccn2)n[nH]1` [Compound 10, 6-(pyridin-2-yl)-2H-pyridazine-3-thione] here?
A: very high cytotoxic activity
